Where a name gives a salt, the structure may show the parent alone.
Target: T1, recombinant sEH (Homo sapiens, UniProt P34913)
T1 construct: made in house; host or cells: Sf9 insect cells
T1 sequence (P34913 1-555): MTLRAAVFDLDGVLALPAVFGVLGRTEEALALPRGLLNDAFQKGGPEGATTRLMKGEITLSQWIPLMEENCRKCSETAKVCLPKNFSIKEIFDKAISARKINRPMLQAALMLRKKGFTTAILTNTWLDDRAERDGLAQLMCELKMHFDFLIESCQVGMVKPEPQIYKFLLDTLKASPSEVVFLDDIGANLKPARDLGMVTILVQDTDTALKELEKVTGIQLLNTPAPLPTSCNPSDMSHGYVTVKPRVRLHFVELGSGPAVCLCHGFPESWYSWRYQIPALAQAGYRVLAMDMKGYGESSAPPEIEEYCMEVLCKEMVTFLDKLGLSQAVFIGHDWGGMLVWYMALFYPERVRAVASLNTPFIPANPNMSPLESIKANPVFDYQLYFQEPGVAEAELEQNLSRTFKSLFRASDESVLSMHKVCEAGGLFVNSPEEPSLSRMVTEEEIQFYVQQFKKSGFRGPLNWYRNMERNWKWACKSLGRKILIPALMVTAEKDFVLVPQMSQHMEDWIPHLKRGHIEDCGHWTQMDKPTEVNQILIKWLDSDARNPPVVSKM
Assay: biochemical screening assay for inhibition of soluble epoxide hydrolase (fluorometric, Phome substrate)
Procedure, shortened: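 Human sEH from Sf9 cells (2 nM final) was pre-incubated 15 min at 30 °C with compound (0.0001–10 μM), then reacted 60 min at 30 °C with 5 μM Phome in 25 mM Hepes/0.01% albumin. Fluorescence of released 6-methoxy-2-naphthaldehyde was read before substrate and at end; IC50 from % inhibition.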

**Q.** How did the IC50 turn out when `Cc1ncccc1O[C@H]1CO[C@H]2[C@@H]1OC[C@@H]2NC(=O)NC1CCC(C(C)(C)O)CC1` (stereo partly drawn) [Example 280, 1-[4-(1-Hydroxy-1-methyl-ethyl)-cyclohexyl]-3-[(3S,3aR,6S,6aS)-6-(2-methyl-pyridin-3-yloxy)-hexa-hydro-furo[3,2-b]furan-3-yl]-urea] was run?
**A.** 12 nM

**Q.** How did the IC50 turn out when `O=C(Nc1cccc(C(F)(F)F)c1)N[C@H]1CO[C@H]2[C@@H]1OC[C@@H]2/C=C\c1ccccc1` [Example 333, 1-[(3S,3aR,6S,6aR)-6-((Z)-Styryl)-hexahydro-furo[3,2-b]furan-3-yl]-3-(3-trifluoromethyl-phenyl)-urea] was run?
**A.** 44 nM

**Q.** How did the IC50 turn out when `Cc1cc(C)cc(NC(=O)NC2COC3C(C#Cc4ccccc4)COC23)c1` [Example 285, 1-(3,5-Dimethyl-phenyl)-3-[(3S,3aR,6R)-6-((S)-phenylethynyl)-hexahydro-furo[3,2-b]furan-3-yl]-urea] was run?
**A.** 21 nM

**Q.** With `NC[C@H]1CO[C@H]2[C@@H]1OC[C@@H]2N(Cc1ccccc1)C(=O)NC1CCCCC1` [Example 7, 1-((3S,3aR,6S,6aR)-6-aminomethyl-hexahydro-furo[3,2-b]furan-3-yl)-1-benzyl-3-cyclohexyl-urea; trifluoroacetate] as the compound, how does the IC50 read?
**A.** 258 nM

**Q.** With `O=C(NC1CCCCC1)N[C@H]1CO[C@H]2[C@@H]1OC[C@@H]2Oc1ccc(C(=O)N2CCNCC2)cc1` [Example 126, 1-Cyclohexyl-3-{(3S,3aR,6S,6aS)-6-[4-(piperazine-1-carbonyl)-phenoxy]-hexahydro-furo[3,2-b]furan-3-yl}-urea; trifluoroacetate] as the compound, how does the IC50 read?
**A.** 30 nM

**Q.** Which IC50 does the source give for `COC1COCCC1NC(=O)N[C@H]1CO[C@H]2[C@@H]1OC[C@@H]2Oc1cccnc1C` (stereo partly drawn) [Example 78, 1-(3-methoxy-tetrahydro-pyran-4-yl)-3-[(3S,3aR,6S,6aS)-6-(2-methyl-pyridin-3-yloxy)-hexahydro-furo[3,2-b]furan-3-yl]-urea; hydrochloride] here?
**A.** 1330 nM

**Q.** How did the IC50 turn out when `Cc1ccc(O[C@H]2CO[C@H]3[C@@H]2OC[C@@H]3NC(=O)NC2CCCCC2)c(C)n1` [Example 34, 1-Cyclohexyl-3-[(3S,3aR,6S,6aS)-6-(2,6-dimethyl-pyridin-3-yloxy)-hexahydro-furo[3,2-b]furan-3-yl]-urea] was run?
**A.** 2 nM

**Q.** Which IC50 does the source give for `O=C(NC1CCN(C(=O)C(F)(F)F)CC1)N[C@H]1CO[C@H]2[C@@H]1OC[C@@H]2Oc1ccc(F)cc1` [Example 157, 1-[(3S,3aR,6S,6aS)-6-(4-Fluoro-phenoxy)-hexahydro-furo[3,2-b]furan-3-yl]-3-[1-(2,2,2-trifluoro-acetyl)-piperidin-4-yl]-urea] here?
**A.** 11 nM

**Q.** For `Cc1ncccc1O[C@H]1CO[C@H]2[C@@H]1OC[C@@H]2NC(=O)NCc1cccc2c1OCCO2` [Example 200, 1-(2,3-Dihydro-benzo[1,4]dioxin-5-ylmethyl)-3-[(3S,3aR,6S,6aS)-6-(2-methyl-pyridin-3-yloxy)-hexahydro-furo[3,2-b]furan-3-yl]-urea], which IC50 is on record?
**A.** 88 nM

**Q.** How did the IC50 turn out when `Cc1ncccc1O[C@H]1CO[C@H]2[C@@H]1OC[C@@H]2NC(=O)Nc1cc(C(C)(C)C)[nH]n1` [Example 215, 1-(5-tert-Butyl-1H-pyrazol-3-yl)-3-[(3S,3aR,6S,6aS)-6-(2-methyl-pyridin-3-yloxy)-hexahydro-furo[3,2-b]furan-3-yl]-urea] was run?
**A.** 238 nM

**Q.** `O=C(NC1CCCCC1)N[C@H]1CO[C@H]2[C@@H]1OC[C@@H]2Oc1cccc(N2CCCC2=O)c1` [Example 107, 1-Cyclohexyl-3-{(3S,3aR,6S,6aS)-6-[3-(2-oxo-pyrrolidin-1-yl)-phenoxy]-hexahydro-furo[3,2-b]furan-3-yl}-urea] was tested. Which IC50 did it give?
**A.** 2 nM

**Q.** How did the IC50 turn out when `Cc1cccc(CNC(=O)NC2COC3C(C#Cc4ccccc4)COC23)c1` [Example 291, 1-(3-Methyl-benzyl)-3-[(3S,3aR,6R)-6-((S)-phenylethynyl)-hexahydro-furo[3,2-b]furan-3-yl]-urea] was run?
**A.** 37 nM

**Q.** `Cc1ncccc1O[C@H]1CO[C@H]2[C@@H]1OC[C@@H]2NC(=O)N[C@H]1CC[C@H](C)CC1` [Example 267, 1-(trans-4-Methyl-cyclohexyl)-3-[(3S,3aR,6S,6aS)-6-(2-methyl-pyridin-3-yloxy)-hexahydro-furo[3,2-b]furan-3-yl]-urea] was tested. Which IC50 did it give?
**A.** 2 nM

**Q.** How did the IC50 turn out when `N#Cc1ccc(S[C@H]2CO[C@H]3[C@@H]2OC[C@@H]3NC(=O)NC2CCCCC2)nc1` [Example 60, 1-[(3S,3aR,6S,6aS)-6-(5-Cyano-pyridin-2-ylsulfanyl)-hexahydro-furo[3,2-b]furan-3-yl]-3-cyclohexyl-urea] was run?
**A.** 4 nM

**Q.** How did the IC50 turn out when `CC1CCC(NC(=O)N[C@H]2CO[C@H]3[C@@H]2OC[C@@H]3Oc2ccc(F)cc2)CC1` (stereo partly drawn) [Example 151, 1-[(3S,3aR,6S,6aS)-6-(4-Fluoro-phenoxy)-hexahydro-furo[3,2-b]furan-3-yl]-3-(4-methyl-cyclohexyl)-urea] was run?
**A.** 8 nM

**Q.** `COC(=O)c1ccc(O[C@H]2CO[C@H]3[C@@H]2OC[C@@H]3NC(=O)NC2CCCCC2)cc1` [Example 10, 4-[(3S,3aS,6S,6aR)-6-(3-cyclohexyl-ureido)-hexahydro-furo[3,2-b]furan-3-yloxy]-benzoic acid methyl ester] was tested. Which IC50 did it give?
**A.** 3 nM

**Q.** `CC[C@@H](NC(=O)N[C@H]1CO[C@H]2[C@@H]1OC[C@@H]2Oc1ccc(F)cc1)c1ccccc1` [Example 154, 1-[(3S,3aR,6S,6aS)-6-(4-Fluoro-phenoxy)-hexahydro-furo[3,2-b]furan-3-yl]-3-((R)-1-phenyl-propyl)-urea] was tested. Which IC50 did it give?
**A.** 51 nM

**Q.** Which IC50 does the source give for `O=C(NC1CCCCC1)N[C@H]1CO[C@H]2[C@@H]1OC[C@@H]2Oc1ccc(Oc2ccccn2)cc1` [Example 109, 1-Cyclohexyl-3-{(3S,3aR,6S,6aS)-6-[4-(pyridin-2-yloxy)-phenoxy]-hexa-hydro-furo[3,2-b]furan-3-yl}-urea] here?
**A.** 1 nM

**Q.** For `Cc1cccc(NC(=O)NC2COC3C(C#N)COC23)c1` (stereo not drawn) [Example 383], which IC50 is on record?
**A.** 694 nM

**Q.** With `Cc1ncccc1OC1COC2C(NC(=O)NC3C4(C)CCC(C4)C3(C)C)COC12` [Example 195, 1-[(2R,3aS,5S,6S)-6-(2-Methyl-pyridin-3-yloxy)-hexahydro-furo[3,2-b]furan-3-yl]-3-((1S,4R)-1,3,3-tri-methyl-bicyclo[2.2.1]hept-2-yl)-urea] as the compound, how does the IC50 read?
**A.** 56 nM

**Q.** Which IC50 does the source give for `O=C(Nc1ccc(Cl)c(Cl)c1)NC1COC2C(C=Cc3ccccc3)COC12` [Example 326, 1-(3,4-Dichloro-phenyl)-3-[(3S,3aR,6R)-6-((S)-(Z)-styryl)-hexa-hydro-furo[3,2-b]furan-3-yl]-urea] here?
**A.** 27 nM

**Q.** `CCOC1COCCC1NC(=O)N[C@H]1CO[C@H]2[C@@H]1OC[C@@H]2Oc1cccnc1C` (stereo partly drawn) [Example 79, 1-(3-ethoxy-tetrahydro-pyran-4-yl)-3-[(3S,3aR,6S,6aS)-6-(2-methyl-pyridin-3-yloxy)-hexahydro-furo[3,2-b]furan-3-yl]-urea; hydrochloride] was tested. Which IC50 did it give?
**A.** 987 nM

**Q.** How did the IC50 turn out when `Cc1ncccc1O[C@H]1CO[C@H]2[C@@H]1OC[C@@H]2NC(=O)NC1CC(=O)N(c2ccccc2)C1` (stereo partly drawn) [Example 247, 1-[(3S,3aR,6S,6aS)-6-(2-Methyl-pyridin-3-yloxy)-hexahydro-furo[3,2-b]furan-3-yl]-3-(5-oxo-1-phenyl-pyrrolidin-3-yl)-urea] was run?
**A.** 65 nM

**Q.** For `O=C(N[C@H]1CO[C@H]2[C@@H]1OC[C@@H]2Oc1ccc(F)cc1)N[C@H]1CCCC[C@@H]1OCc1ccccc1` [Example 163, 1-((1S,2S)-2-Benzyloxy-cyclohexyl)-3-[(3S,3aR,6S,6aS)-6-(4-fluoro-phenoxy)-hexahydro-furo[3,2-b]furan-3-yl]-urea], which IC50 is on record?
**A.** 192 nM

From US9540391B2, “Isomannide derivatives as inhibitors of soluble epoxide hydrolase” (SANOFI, priority 2013, dated 2017)
